Experimental data as given in ChEMBL document CHEMBL5727788, “Amido-benzyl sulfone and sulfoxide derivates” (2020).

molecular target: Nicotinamide phosphoribosyltransferase (Homo sapiens, UniProt P43490); experiment: Enzymatic Reaction Assay: The NAMPT enzymatic reactions were carried out in Buffer A (50 mM Hepes pH 7.5, 50 mM NaCl, 5 mM MgCl2, and 1 mM THP) in 96-well V-bottom plates. The compound titrations were performed in a separate dilution plate by serially diluting the compounds in DMSO to make a 100× stock. Buffer A (89 μL) containing 33 nM of NAMPT protein was added to 1 μL of 100× compound plate containing controls (e.g. DMSO or blank). The compound and enzyme mixture was incubated for 15 min at rt, then 10 μL of 10× substrate and co-factors in Buffer A were added to the test well to make a final concentration of 1 μM NAM, 100 μM 5-Phospho-D-ribose 1-diphosphate (PRPP), and 2.5 mM Adenosine 5′-triphosphate (ATP). The reaction was allowed to proceed for 30 min at rt, then was quenched with the addition of 11 μL of a solution of formic acid and L-Cystathionine to make a final concentration of 1% formic acid and 10 μM L-Cystathionine. Background and signal strength was determined by addition (or non-addition) of a serial dilution of NMN to a pre-quenched enzyme and cofactor mix.
Sequence (P43490 whole entry): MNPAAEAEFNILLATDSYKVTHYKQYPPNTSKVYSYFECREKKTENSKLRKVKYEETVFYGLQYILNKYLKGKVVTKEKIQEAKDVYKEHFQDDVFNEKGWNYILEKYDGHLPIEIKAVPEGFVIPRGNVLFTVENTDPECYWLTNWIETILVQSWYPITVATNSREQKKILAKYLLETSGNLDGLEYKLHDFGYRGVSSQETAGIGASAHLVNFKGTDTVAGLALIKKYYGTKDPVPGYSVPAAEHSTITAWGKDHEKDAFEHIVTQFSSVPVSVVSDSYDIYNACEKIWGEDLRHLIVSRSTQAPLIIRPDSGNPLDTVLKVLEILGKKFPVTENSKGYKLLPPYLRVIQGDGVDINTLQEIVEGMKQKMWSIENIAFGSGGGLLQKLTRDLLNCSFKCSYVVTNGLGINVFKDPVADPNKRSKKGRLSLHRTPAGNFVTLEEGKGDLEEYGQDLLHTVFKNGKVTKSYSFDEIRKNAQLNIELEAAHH

Point of comparison: `CCN1CCC([S+]([O-])c2ccc(CNC(=O)c3ccc4nccn4c3)cc2)CC1` (stereo not drawn), IC50 43.4 nM. Against it:
- O=C(NCc1ccc(S(=O)(=O)N2CC3COCC3C2)cc1)c1cnc2[nH]ncc2c1 (mixture of isomers) — 3.5-fold higher, 150 nM
- CC(C)N1CCN(S(=O)(=O)c2ccc(CNC(=O)c3ccc4nccn4c3)cc2)CC1 — within 1.5-fold, 48.4 nM
